Reference: publication PMC11756387, “Improving the solubility of pseudo-hydrophobic chemicals through co-crystal formulation” (PNAS Nexus, 2025)
Values after ≈ are worked out from the molar mass of the structure shown. Values belong to the molecule of their own block, whether it stands above or below them.

Legend:
[1] = Kinetic solubility in simulated intestinal fluid (SIF); details: pH 6.8
[2] = buffer
physchem [3] = details: water, thermodynamic from solid
physchem [4] = details: pH 7.4
in vitro [5] = details: human, microsomes
in vitro [6] = details: male, mouse, microsomes
AD tau = AD tau (Homo sapiens, UniProt P10636); assay type: cell-based
Sequence of AD tau (P10636 623-695 limits assumed): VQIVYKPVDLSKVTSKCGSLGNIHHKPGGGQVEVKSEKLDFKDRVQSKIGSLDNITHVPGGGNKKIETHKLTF

solubility kinetic at 2 h [1]: ~300 µM (≈ 88.8 µg/mL)
Compound: O=C(O)Cc1ccccc1Nc1c(Cl)cccc1Cl [diclofenac]

Fraction remaining dissolved in aqueous solution after centrifugation [2]: about 20%
solubility thermodynamic (physchem [3]): 650 µg/mL (≈ 2030 µM)
logD at 1 h (physchem [4]): 0.63
half-life at 1 µM (in vitro [5]): 3.38 h
remaining at 1 h, 1 µM (in vitro [5]): ~100%
half-life at 1 µM (in vitro [6]): 1.57 h
Compound: O=C1c2c(O)cc(O)cc2O[C@H](c2cc(O)c(O)c(O)c2)[C@H]1O [DHM, dihydromyricetin]

Compound: [Ca+2].[OH-].[OH-] [Ca(OH)2, calcium hydroxide]
Inhibitory activity of counterions toward tau seeding (AD tau): neither TEA nor Ca(OH)2 exhibited inhibitory activity
